In patent US12691070B2, “Cationic lipids and preparation method thereof” (RiboX Therapeutics HK Limited, priority 2023, dated 2026):

Key:
[1] = LNP size and polydispersity index (PDI) by dynamic light scattering; format: physicochemical; conditions: for Size: in nm (unit assumed)
Summary of the method: (§1)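 Dynamic light scattering and zeta potential measurements were run on PBS-dialyzed LNPs, which had been formed by microfluidic mixing at 12 ml/min with final lipid at 1.5 mM to 6 mM. RNA content and percent encapsulation were determined by Ribogreen with and without Triton X-100.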

[2] = RNA encapsulation efficacy by Quant-IT Ribogreen kit; format: physicochemical; conditions: for Encapsulation Efficiency %: LNP with cirRNA (SEQ ID NO: 1); for Encapsulation Efficiency: LNP with mRNA (SEQ ID NO: 2)
Summary of the method: as §1

[3] = system: BALB/C mice; assay: In vivo expression, whole-body luminescence (IVIS)
Protocol: 6-8 week old, female BALB/C mice were injected with 0.05 mg*kg-1 of RNA-LNPs encoding for firefly-luciferase by intravenous injection. At 6 hours post injection, animals were intraperitoneally injected with 15 mg/ml of Luciferin substrate and whole-body luminescence was determined by a bioluminescent in vivo imaging system (IVIS).

[4] = system: Alanine Aminotransferase (ALT); assay: Liver enzyme elevation in serum, ALT; format: in vivo; conditions: cirRNA (SEQ ID NO: 1) LNPs, BALB/C mice, intravenous 0.5 MPK
Protocol: (§2) 6-8 week old, female BALB/C mice were injected with 0.5 mg*kg-1 of RNA LNPs by intravenous injection. At 2 and 24 hours post injection, animals were bled and sera concentrations of Alanine Aminotransferase (ALT) and Aspartate Aminotransferase (AST) were determined by a blood chemistry analyzer.

[5] = system: RAW 264.7 cells; assay: In vitro toxicity (CellTiter-Glo cell viability), RAW 264.7; format: cell-based;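 also: percent of untreated cells luminescence signal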
Summary of the method: (§3)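 Luminescent ATP read-out (CellTiter-Glo) gives the viability value, taken 72 h after cells were exposed to RNA-loaded lipid nanoparticles at 1 μg/mL.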

[6] = LNP zeta potential (Zetasizer); format: physicochemical
Summary of the method: as §1

[7] = system: RAW 264.7 cells; assay: In vitro expression of firefly-luciferase, RAW 264.7; format: cell-based
Summary of the method: (§4)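 First, cells were dosed with RNA lipid nanoparticles encoding firefly luciferase (100 ng/mL). Second, at 72 h they were washed and lysed. Third, lysate luciferase activity was read with a luminometer.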

[8] = system: BALB/C mice; assay: Local tolerance determination by footpad injection; format: in vivo; conditions: cirRNA (SEQ ID NO: 1) LNP, 0.175 mg*kg-1 subcutaneous into the footpad, 24 hours post minus prior
Protocol: 6-8 week old, female BALB/C mice were injected with 0.175 mg*kg-1 RNA LNPs by subcutaneous injection into the footpad. Prior to, and 24 hours post injections, injected footpad thickness was determined by a caliper.

[9] = system: Aspartate Aminotransferase (AST); assay: Liver enzyme elevation in serum, AST; format: in vivo; conditions: cirRNA (SEQ ID NO: 1) LNPs, BALB/C mice, intravenous 0.5 MPK
Protocol: as §2

[10] = system: MCP-I; assay: MCP-I cytokine elevation in serum; format: in vivo; conditions: cirRNA (SEQ ID NO: 1) LNPs, mice
Protocol: 6-8 week old, female BALB/C mice were injected with 0.5 mg*kg-1 of RNA LNPs by intravenous injection. At 2 and 24 hours post injection, animals were bled and sera concentrations of MCP-I were determined by an immunoassay (Luminex).

[11] = system: Hep G2 cells; assay: In vitro toxicity (CellTiter-Glo cell viability), Hep G2; format: cell-based;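 also: percent of untreated cells luminescence signal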
Summary of the method: as §3

[12] = system: Hep G2 cells; assay: In vitro expression of firefly-luciferase, Hep G2; format: cell-based
Summary of the method: as §4

[13] = cirRNA (SEQ ID NO: 1) LNPs, BALB/C mice
[14] = mRNA (SEQ ID NO: 2) LNP, 0.05 mg*kg-1 intravenous, 6 hours post injection
[15] = cirRNA (SEQ ID NO: 1) LNPs, RAW 264.7 cells
[16] = mRNA (SEQ ID NO: 2) LNP, 1 μg/mL, 72 hours post transfection
[17] = cirRNA (SEQ ID NO: 1) LNPs, firefly-luciferase luminescence, RAW 264.7 cells
[18] = mRNA (SEQ ID NO: 2) LNP, 100 ng/mL, 72 hours post transfection, luciferase activity
[19] = cirRNA (SEQ ID NO: 1) LNPs, Hep G2 cells
[20] = cirRNA (SEQ ID NO: 1) LNPs, firefly-luciferase luminescence, Hep G2 cells

Structure (SMILES) | PDI ([1]; LNP with cirRNA (SEQ ID NO: 1)) | Size ([1]; LNP with cirRNA (SEQ ID NO: 1)) | PDI ([1]; LNP with mRNA (SEQ ID NO: 2)) | Size ([1]; LNP with mRNA (SEQ ID NO: 2)) | Encapsulation Efficiency % [2] [%] | Encapsulation Efficiency [2] [%] | In vivo Expression (Whole Body) [3, 13] | In vivo Expression (Whole Body) [3, 14] | ALT in Sera (IU/L) 2 hours After 0.5 MPK Injection [4] [IU/L] | ALT in Sera (IU/L) 24 hours After 0.5 MPK Injection [4] [IU/L] | In vitro Viability RAW [5, 15] [%] | In vitro Viability RAW [5, 16] [%] | Zeta (mV) ([6]; LNP with cirRNA (SEQ ID NO: 1)) | Zeta (mV) ([6]; LNP with mRNA (SEQ ID NO: 2)) | In vitro Expression RAW [7, 17] | In vitro Expression RAW [7, 18] | Footpad Thickness (24 h−0 h, mm) [8] [mm] | AST in Sera (IU/L) 2 hours After 0.5 MPK Injection [9] [IU/L] | AST in Sera (IU/L) 24 hours After 0.5 MPK Injection [9] [IU/L] | MCP-I in Sera 2 hours After 0.5 MPK Injection [10] [pg/mL] | other results
CCCCCCCCCCC(CCCCCCCC)COC(=O)CCCCCN(CCCCCC(=O)OCC(CCCCCCCC)CCCCCCCCCC)CCOC(=O)NCCN1CCCCC1 (stereo not drawn) [Lipid 169] | 0.003 | 73.59 | 0.07881 | 88.09 | 95 | 87.64 | 4.92E+08 | 1.46E+09 | 65.40 | 57.80 | 82 | 83 | −2.92 | −0.8755 | 5.36E+05 | 2.87E+06 | 0.84 | 129.50 | 87.00 | 509.14 | MCP-I in Sera 24 hours After 0.5 MPK Injection [10]: 80.18 pg/mL; In vitro Viability HepG2 [11, 19]: 88%; In vitro Viability HepG2 [11, 16]: 93%; In vitro Expression HepG2 [12, 20]: 1.94E+06; In vitro Expression HepG2 [12, 18]: 1.59E+07
CCCCC/C=C\C/C=C\CCCCCCCCN(CCCCCCCC(=O)OC(CCCCCCCC)CCCCCCCC)CCCOC(=O)NCc1ncc[nH]1 [Lipid 271] | 0.2068 | 98.73 | 0.1219 | 97.34 | 93 | 94.51 | 8.99E+07 | 8.51E+08 | 128.33 | 114.67 | 121 | 85 | 0.345 | 0.8825 | 1.59E+06 | 6.06E+06 | 0.40 | 200.67 | 231.33 | 1986.67 | MCP-I in Sera 24 hours After 0.5 MPK Injection [10]: 522.62 pg/mL; In vitro Viability HepG2 [11, 19]: 91%; In vitro Viability HepG2 [11, 16]: 117%; In vitro Expression HepG2 [12, 20]: 5.51E+06; In vitro Expression HepG2 [12, 18]: 3.69E+06
CCCCCCCCCCC(CCCCCCCC)COC(=O)CCCCCN(CCCCCC(=O)OCC(CCCCCCCC)CCCCCCCCCC)CCCOC(=O)NCCN1CCCCC1 (stereo not drawn) [Lipid 370] | 0.08162 | 90.63 | 0.1494 | 112.8 | 97 | 93.87 | 3.68E+08 | 3.37E+08 | 102.00 | 123.00 | 96 | 107 | 0.1617 | 0.9875 | 1.98E+06 | 3.26E+07 | 0.50 | 276.33 | 413.33 | 4872.33 | MCP-I in Sera 24 hours After 0.5 MPK Injection [10]: 1652.33 pg/mL; In vitro Viability HepG2 [11, 19]: 93%; In vitro Viability HepG2 [11, 16]: 94%; In vitro Expression HepG2 [12, 20]: 2.65E+07; In vitro Expression HepG2 [12, 18]: 6.38E+07
CCCCC/C=C\CCOC(=O)CCCCCN(CCCCCC(=O)OCC(CCCCCCCC)CCCCCCCCCC)CCOC(=O)NCCN1CCCCC1 (stereo not drawn) [Lipid 245] | 0.12 | 99.5 | 0.1109 | 108.8 | 86 | 85.53 | 2.99E+08 | 1.18E+08 | 136.50 | 107.33 | 94 | 89 | −5.02 | 2.004 | 2.68E+05 | 3.81E+06 | 0.68 | 387.00 | 187.67 | 2543.33 | MCP-I in Sera 24 hours After 0.5 MPK Injection [10]: 342.29 pg/mL; In vitro Viability HepG2 [11, 19]: 88%; In vitro Viability HepG2 [11, 16]: 118%; In vitro Expression HepG2 [12, 20]: 7.24E+05; In vitro Expression HepG2 [12, 18]: 4.35E+06
CCCCCCCCCCC(CCCCCCCC)COC(=O)CCCCCN(CCCCCC(=O)OCC(CCCCCCCC)CCCCCCCCCC)CCOC(=O)NCCN1CCCC1 (stereo not drawn) [Lipid 168] | 0.06 | 93.98 | 0.101 | 68.36 | 97 | 89.10 | 4.82E+08 | 5.89E+09 | 72.80 | 57.60 | 79 | 75 | −0.573 | 0.8152 | 1.66E+06 | 6.99E+05 | 1.13 | 218.63 | 139.13 | 4607.51 | MCP-I in Sera 24 hours After 0.5 MPK Injection [10]: 75.08 pg/mL; In vitro Viability HepG2 [11, 19]: 55%; In vitro Viability HepG2 [11, 16]: 70%; In vitro Expression HepG2 [12, 20]: 1.03E+07; In vitro Expression HepG2 [12, 18]: 1.80E+07
CCCCCCCCC(CCCCCC)C(=O)OCCCCCCCCN(CCCCCCCCCCC(=O)OCCCCCC)CCOC(=O)NCCN(C)C (stereo not drawn) [Lipid 43, hexyl 10-(8-((2-hexyldecanoyl)oxy)octyl)-2-methyl-6-oxo-7-oxa-2,5,10-triazahenicosan-21-oate] | 0.04 | 91.2 | 0.09046 | 67.1 | 95 | 88 | 6.22E+08 | 1.98E+08 | 57.07 | 41.53 | 97 | 88 | 1.26 | 12.6 | 1.10E+05 | 9.60E+04 | 0.33 | 135.60 | 88.97 | 5561.83 | MCP-I in Sera 24 hours After 0.5 MPK Injection [10]: 17.57 pg/mL; In vitro Viability HepG2 [11, 19]: 97%; In vitro Viability HepG2 [11, 16]: 97%; In vitro Expression HepG2 [12, 20]: 1.75E+04; In vitro Expression HepG2 [12, 18]: 1.33E+06
